No end group written: not given here.
Experiments:
[1] = tested on: Miltenberger Antibody Positive Panel; experiment: Reactivity of modified RBCs against the Miltenberger Antibody Positive Panel; format: cell-based, human; design: key to score vs panel 15 TAP2 / score vs panel 4 T7202 / score vs panel 8 T5896 / score vs panel 2 T217 / score vs panel 3 T165 / score vs panel 14 TAP1 / score vs panel 10 Mia / score vs panel 11 Mur / score vs panel 12 Gam / score vs panel 6 T6025 / score vs panel 7 T8445 / score vs panel 9 MIII / score vs panel 13 BoxH / reactivity with Panel Serum #7 (T8445) / agglutination score, Panel Serum #7 (T8445): 0 or ‘−’ no agglutination; 0 or ‘−’ no agglutination; 1+ or 3=very weak agglutination; 1+ or 3=very weak agglutination; 2+ or 5=weak agglutination; 2+ or 5=weak agglutination; 3+ or 8=moderate strong agglutination; 3+ or 8=moderate strong agglutination; 4+ or 10/12=strong agglutination; 4+ or 10/12=strong agglutination; 4+ or 10/12=strong agglutination
[2] = tested on: natural Mi III antibody reactive human serums; experiment: Positive serum reactivity of modified RBCs in the field; format: cell-based; design: key: 0 or ‘−’ no agglutination; 0 or ‘−’ no agglutination; 1+ or 3=very weak agglutination; 1+ or 3=very weak agglutination; 2+ or 5=weak agglutination; 2+ or 5=weak agglutination; 3+ or 8=moderate strong agglutination; 3+ or 8=moderate strong agglutination; 4+ or 10/12=strong agglutination; 4+ or 10/12=strong agglutination; 4+ or 10/12=strong agglutination; conditions: 22 at 50, 17 and 24 at 200 μg/ml; 3 h RT then 18 h 4° C.
Method: (§1) The suspensions are either: • 1. incubated for 2 hours at 37° C. before being washed and suspended in a cell medium for serological analysis at a concentration of 0.8 to 3% (Method 1); or • 2. incubated for 3 to 4 hours at room temperature (circa 25° C.) followed by 18 hours at 4° C. before being washed and suspended in a cell medium for serological analysis at a concentration of 0.8 to 3% (Method 2).
(§2) Serological reactions are graded or scored by either of two established systems (0 or ‘−’ no agglutination, 1+ or 3=very weak agglutination, 2+ or 5=weak agglutination, 3+ or 8=moderate strong agglutination, 4+ or 10/12=strong agglutination)

[3] = tested on: TAP1 serum (Taiwan Miltenberger antibody positive sample); experiment: Anti-MUT serum (TAP1) reactivity of modified RBCs (saline and AHG); format: cell-based, human; design: key: 0 or ‘−’ no agglutination; 0 or ‘−’ no agglutination; 1+ or 3=very weak agglutination; 1+ or 3=very weak agglutination; 2+ or 5=weak agglutination; 2+ or 5=weak agglutination; 3+ or 8=moderate strong agglutination; 3+ or 8=moderate strong agglutination; 4+ or 10/12=strong agglutination; 4+ or 10/12=strong agglutination; 4+ or 10/12=strong agglutination
Method: as §1, §2

[4] = tested on: antibody negative serums; experiment: False positive reactions of modified RBCs with antibody negative serums/plasma; format: cell-based, human; design: key to Reaction score BioVue AHG, PAC samples 1-46, 49, 50, 52, 53 / Reaction score BioVue AHG, PAC sample 47 / Reaction score BioVue AHG, PAC sample 48 / Reaction score BioVue AHG, PAC sample 51 / agglutination score, T series serum 2 / agglutination score, T series serum 42 / agglutination score, T series serum 63 / agglutination score, T series serum 62 / agglutination score, T series serum 7 / agglutination score, T series serum 20 / agglutination score, T series serum 48 / agglutination score, T series serum 22 / agglutination score, T series serum 39 / agglutination score, T series serum 23 / agglutination score, T series serum 30 / agglutination score, T series serum 4 / agglutination score, T series serum 31 / agglutination score, T series serum 44 / agglutination score, T series serum 61 / agglutination score, T series serum 18 / agglutination score, T series serum 21 / agglutination score, T series serum 28 / agglutination score, T series serum 55 / agglutination score, false positive serum T18 / agglutination score, false positive serum T21 / agglutination score, false positive serum T28 / agglutination score, false positive serum T55 / agglutination score, false positive serum T78 / agglutination score, false positive serum T92: 0 or ‘−’ no agglutination; 0 or ‘−’ no agglutination; 1+ or 3=very weak agglutination; 1+ or 3=very weak agglutination; 2+ or 5=weak agglutination; 2+ or 5=weak agglutination; 3+ or 8=moderate strong agglutination; 3+ or 8=moderate strong agglutination; 4+ or 10/12=strong agglutination; 4+ or 10/12=strong agglutination; 4+ or 10/12=strong agglutination
[5] = tested on: Miltenberger antibody positive sera; experiment: BioVue AHG card column agglutination serology of modified red blood cells; format: cell-based, human; design: key: 0 or ‘−’ no agglutination; 0 or ‘−’ no agglutination; 1+ or 3=very weak agglutination; 1+ or 3=very weak agglutination; 2+ or 5=weak agglutination; 2+ or 5=weak agglutination; 3+ or 8=moderate strong agglutination; 3+ or 8=moderate strong agglutination; 4+ or 10/12=strong agglutination; 4+ or 10/12=strong agglutination; 4+ or 10/12=strong agglutination; conditions: construct 50 μg/ml
Method: Red blood cells are modified by mixing 1 part by volume of washed packed red blood cells with 1 part by volume of peptide-lipid construct dispersed at a concentration of 10 to 1000 pg/ml in cell media (Celpresol™).
as §1, §2
Serological platforms used are Tube (addition of reagents and reactants into plastic or glass serology tubes and after appropriate incubations, washing and centrifugation observing reactions macroscopically by eye and a 10× magnification eyepiece and scoring) and BioVue™ (addition of reactants into cassettes containing beads (including some reactants) and after appropriate incubations and centrifugation observing the reaction patterns trapped within the Gel matrix). BioVue is the serological column agglutination platform of Ortho-Clinical Diagnostics. Diamed is the serological column agglutination platform of Diamed AG.

[6] = cells modified at 50 μg/ml, 2 hour 37° C., BioVue AHG cards
[7] = construct 50 μg/ml (2 hours, 37° C.)
[8] = larger series = 102, cells modified at 50 μg/ml, 2 hour 37° C., BioVue AHG cards

With “M17: DOPE peptide-lipid construct: Mur peptide TYPAHTANEV, leader c, spacer CMG(2) (TYPAHTANEVC; also: DOPE peptide-lipid construct via leader Cys, spacer CMG(2))” the “score vs panel 2 T217” value ([1]; Table 9, construct 100 μg/ml) was 0, the “score vs panel 3 T165” value ([1]; Table 9, construct 100 μg/ml) was 10 and the “score vs panel 4 T7202” value ([1]; Table 9, construct 100 μg/ml) was 8. The “score vs panel 6 T6025” value ([1]; Table 9, construct 100 μg/ml) was 10, the “score vs panel 7 T8445” value ([1]; Table 9, construct 100 μg/ml) was 10 and the “score vs panel 8 T5896” value ([1]; Table 9, construct 100 μg/ml) was 0. The “score vs panel 9 MIII” value ([1]; Table 9, construct 100 μg/ml) was 0, the “score vs panel 10 Mia” value ([1]; Table 9, construct 100 μg/ml) was 0 and the “score vs panel 11 Mur” value ([1]; Table 9, construct 100 μg/ml) was 0. The “score vs panel 12 Gam” value ([1]; Table 9, construct 100 μg/ml) was 0, the “score vs panel 15 TAP2” value ([1]; Table 9, construct 100 μg/ml) was 0 and the “agglutination score, Panel Serum #7 (T8445)” value [1, 6] was 10. The “reactivity with Panel Serum #7 (T8445)” value [1, 7] was 10, the “score vs Mi III reactive serum 912485657-9” value [2] was 3 and the “score vs Mi III reactive serum 914146821-8” value [2] was 10. The “score vs Mi III reactive serum 922390844-5” value [2] was 12, the “score vs Mi III reactive serum 926190919-0” value [2] was 3 and the “score vs Mi III reactive serum 926555294-1” value [2] was 0. The “score vs Mi III reactive serum 927175131-4” value [2] was 0, the “score vs Mi III reactive serum 927299700-1” value [2] was 0 and the “score vs Mi III reactive serum 927516053-2” value [2] was 0. For the same substance, the “score vs Mi III reactive serum 927619701-8” value [2] was 3, the “score vs Mi III reactive serum 932360876-4” value [2] was 0 and the “score vs Mi III reactive serum 932467774-5” value [2] was 0. The “score vs Mi III reactive serum 932809044-1” value [2] was 8, the “score vs Mi III reactive serum 942223755-1” value [2] was 5 and the “score vs Mi III reactive serum 942404708-4 (row interpreted Mur)” value [2] was 5. The “score vs Mi III reactive serum 942404708-4 (row interpreted other)” value [2] was 0, the “score vs Mi III reactive serum 942421413-0” value [2] was 5 and the “score vs Mi III reactive serum 942423002-4” value [2] was 0. The “score vs Mi III reactive serum 942433813-3” value [2] was 8, the “score vs Mi III reactive serum 942433855-3” value [2] was 8 and the “score vs Mi III reactive serum 942442720-2” value [2] was 5. The “score vs Mi III reactive serum 942448627-8” value [2] was 0, the “score vs Mi III reactive serum 942753165-4” value [2] was 8 and the “score vs Mi III reactive serum 942762589-1” value [2] was 0. The “score vs Mi III reactive serum 9322338631” value [2] was 10, the “score vs Mi III reactive serum 9325490091” value [2] was 5 and the “score vs Mi III reactive serum 9327986660” value [2] was 3. For the same substance, the “score vs Mi III reactive serum 9328118428” value [2] was 10, the “score vs Mi III reactive serum 9328154853” value [2] was 10 and the “score vs Mi III reactive serum 9328791834” value [2] was 3. For the same substance, the “score vs Mi III reactive serum 9424248012” value [2] was 0, the “score vs Mi III reactive serum 9424292604” value [2] was 8 and the “score vs Mi III reactive serum 9424396133” value [2] was 0. For the same substance, the “score vs Mi III reactive serum 9425256505” value [2] was 8, the “score vs Mi III reactive serum 9427455417” value [2] was 5 and the “score vs Mi III reactive serum 9427613497” value [2] was 0. The “score vs Mi III reactive serum 9427615156” value [2] was 0, the “score vs Mi III reactive serum S-3” value [2] was 3 and the “TAP 1 Serum, AHG score” value ([3]; construct 50 μg/ml) was 0. The “TAP 1 Serum, Saline score” value ([3]; construct 50 μg/ml) was 0, the “% positive” value ([4]; T series reactives (n = 58), BioVue AHG cards) was 33% and the “agglutination score, T series serum 2” value [4, 6] was 10. For the same substance, the “agglutination score, T series serum 4” value [4, 6] was 8, the “agglutination score, T series serum 7” value [4, 6] was 8 and the “agglutination score, T series serum 18” value [4, 6] was 12. For the same substance, the “agglutination score, T series serum 20” value [4, 6] was 8, the “agglutination score, T series serum 21” value [4, 6] was 12 and the “agglutination score, T series serum 22” value [4, 6] was 8. For the same substance, the “agglutination score, T series serum 23” value [4, 6] was 3, the “agglutination score, T series serum 28” value [4, 6] was 12 and the “agglutination score, T series serum 30” value [4, 6] was 3. The “agglutination score, T series serum 31” value [4, 6] was 8, the “agglutination score, T series serum 39” value [4, 6] was 5 and the “agglutination score, T series serum 42” value [4, 6] was 10. For the same substance, the “agglutination score, T series serum 44” value [4, 6] was 10, the “agglutination score, T series serum 48” value [4, 6] was 8 and the “agglutination score, T series serum 55” value [4, 6] was 12. For the same substance, the “agglutination score, T series serum 61” value [4, 6] was 10, the “agglutination score, T series serum 62” value [4, 6] was 8 and the “agglutination score, T series serum 63” value [4, 6] was 10. The “agglutination score, false positive serum T18” value [4, 8] was 12, the “agglutination score, false positive serum T21” value [4, 8] was 12 and the “agglutination score, false positive serum T28” value [4, 8] was 12. For the same substance, the “agglutination score, false positive serum T55” value [4, 8] was 12, the “agglutination score, false positive serum T78” value [4, 8] was 12 and the “agglutination score, false positive serum T92” value [4, 8] was 12. For the same substance, the “number of negative serums with score 0” value ([4]; n = 102 negative serum samples) was 65, the “number of negative serums with score 3” value ([4]; n = 102 negative serum samples) was 3 and the “number of negative serums with score 8-5” value ([4]; n = 102 negative serum samples) was 18. The “number of negative serums with score 12-10” value ([4]; n = 102 negative serum samples) was 17, the “share of negative serums with score 0” value ([4]; n = 102 negative serum samples) was 64% and the “share of negative serums with score 3” value ([4]; n = 102 negative serum samples) was 3%. The “share of negative serums with score 8-5” value ([4]; n = 102 negative serum samples) was 18% and the “share of negative serums with score 12-10” value ([4]; n = 102 negative serum samples) was 17%.

With “M33: DOPE peptide-lipid construct: MUTK peptide QTNDKHKRDTY, leader c, spacer CMG(2) (QTNDKHKRDTYC; also: DOPE peptide-lipid construct via leader Cys, spacer CMG(2))” the “BioVue score vs TAP1” value [5] was 3, the “BioVue score vs positive sample 2 T217 (T)” value [5] was 0 and the “BioVue score vs positive sample 3 T165 (Mur)” value [5] was 0. The “BioVue score vs positive sample 4 T7202 (M)” value [5] was 0, the “BioVue score vs positive sample 8 T5896 (M + K + Mur)” value [5] was 0 and the “score vs panel 2 T217” value ([1]; Table 8, construct 50 μg/ml) was 0. For the same substance, the “score vs panel 3 T165” value ([1]; Table 8, construct 50 μg/ml) was 0, the “score vs panel 4 T7202” value ([1]; Table 8, construct 50 μg/ml) was 0 and the “score vs panel 8 T5896” value ([1]; Table 8, construct 50 μg/ml) was 0. The “score vs panel 14 TAP1” value ([1]; Table 8, construct 50 μg/ml) was 8, the “score vs panel 15 TAP2” value ([1]; Table 8, construct 50 μg/ml) was 0 and the “Reactivity with anti-MUT serum TAP1” value [3, 7] was 3.
